Molecular target: Aβ42 (Homo sapiens, UniProt P05067)
Assay: Th-T (thioflavin-T) assay of Aβ42 aggregation
Assay type: biochemical
Conditions: for Th-T assay plate reading, mean of three wells (Supplementary Fig. 47): source data, Ab alone and No Ab as controls

Aβ42, sequence (P05067 672-713): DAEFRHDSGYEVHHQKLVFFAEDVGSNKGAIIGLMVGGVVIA

Th-T fluorescence, mean of three wells (Aβ42 aggregation time course, reading M117): 2.792
Th-T fluorescence, mean of three wells (Aβ42 aggregation time course, reading M118): 2.807
Th-T fluorescence, mean of three wells (Aβ42 aggregation time course, reading M119): 2.796
Th-T fluorescence, mean of three wells (Aβ42 aggregation time course, reading M120): 2.799
Th-T fluorescence, mean of three wells (Aβ42 aggregation time course, reading M121): 2.791
Th-T fluorescence, mean of three wells (Aβ42 aggregation time course, reading M122): 2.801
Th-T fluorescence, mean of three wells (Aβ42 aggregation time course, reading M123): 2.8089
Th-T fluorescence, mean of three wells (Aβ42 aggregation time course, reading M124): 2.764
Th-T fluorescence, mean of three wells (Aβ42 aggregation time course, reading M125): 2.798
Th-T fluorescence, mean of three wells (Aβ42 aggregation time course, reading M126): 2.7918
Th-T fluorescence, mean of three wells (Aβ42 aggregation time course, reading M127): 2.782
Th-T fluorescence, mean of three wells (Aβ42 aggregation time course, reading M128): 2.756
Th-T fluorescence, mean of three wells (Aβ42 aggregation time course, reading M129): 2.788
Th-T fluorescence, mean of three wells (Aβ42 aggregation time course, reading M130): 2.772
Th-T fluorescence, mean of three wells (Aβ42 aggregation time course, reading M131): 2.794
Th-T fluorescence, mean of three wells (Aβ42 aggregation time course, reading M132): 2.756
Th-T fluorescence, mean of three wells (Aβ42 aggregation time course, reading M133): 2.787
Th-T fluorescence, mean of three wells (Aβ42 aggregation time course, reading M134): 2.786
Th-T fluorescence, mean of three wells (Aβ42 aggregation time course, reading M135): 2.766
Th-T fluorescence, mean of three wells (Aβ42 aggregation time course, reading M136): 2.788
Th-T fluorescence, mean of three wells (Supplementary Fig. 47, reading M137): 2.782
Th-T fluorescence, mean of three wells (Supplementary Fig. 47, reading M138): 2.781
Th-T fluorescence, mean of three wells (Supplementary Fig. 47, reading M139): 2.778
Th-T fluorescence, mean of three wells (Supplementary Fig. 47, reading M140): 2.777
Th-T fluorescence, mean of three wells (Supplementary Fig. 47, reading M141): 2.762
Th-T fluorescence, mean of three wells (Supplementary Fig. 47, reading M142): 2.77
Th-T fluorescence, mean of three wells (Supplementary Fig. 47, reading M143): 2.794
Th-T fluorescence, mean of three wells (Supplementary Fig. 47, reading M144): 2.791
Th-T fluorescence, mean of three wells (Supplementary Fig. 47, reading M145): 2.767
Th-T assay plate reading, mean of three wells (Supplementary Fig. 47) (measurement M1): 0.2408
Th-T assay plate reading, mean of three wells (Supplementary Fig. 47) (measurement M2): 0.2372
Th-T assay plate reading, mean of three wells (Supplementary Fig. 47) (measurement M3): 0.2484
Th-T assay plate reading, mean of three wells (Supplementary Fig. 47) (measurement M4): 0.2764
Th-T assay plate reading, mean of three wells (Supplementary Fig. 47) (measurement M5): 0.3211
Th-T assay plate reading, mean of three wells (Supplementary Fig. 47) (measurement M6): 0.3818
Th-T assay plate reading, mean of three wells (Supplementary Fig. 47) (measurement M7): 0.386
Th-T assay plate reading, mean of three wells (Supplementary Fig. 47) (measurement M8): 0.4241
Th-T assay plate reading, mean of three wells (Supplementary Fig. 47) (measurement M9): 0.4754
Th-T assay plate reading, mean of three wells (Supplementary Fig. 47) (measurement M10): 0.5222
Th-T assay plate reading, mean of three wells (Supplementary Fig. 47) (measurement M11): 0.5741
Th-T assay plate reading, mean of three wells (Supplementary Fig. 47) (measurement M12): 0.6179
Th-T assay plate reading, mean of three wells (Supplementary Fig. 47) (measurement M13): 0.6443
Th-T assay plate reading, mean of three wells (Supplementary Fig. 47) (measurement M14): 0.6952
Th-T assay plate reading, mean of three wells (Supplementary Fig. 47) (measurement M15): 0.7748
Th-T assay plate reading, mean of three wells (Supplementary Fig. 47) (measurement M16): 1.021
Th-T fluorescence, mean of three wells (reading M17, Supplementary Fig. 47 source data): 1.394
Th-T fluorescence, mean of three wells (time-course reading M97, Supplementary Fig. 47 source data): 2.816
Th-T fluorescence, mean of three wells (time-course reading M98, Supplementary Fig. 47 source data): 2.842
Th-T fluorescence, mean of three wells (time-course reading M99, Supplementary Fig. 47 source data): 2.834
Th-T fluorescence, mean of three wells (time-course reading M100, Supplementary Fig. 47 source data): 2.825
Th-T fluorescence, mean of three wells (time-course reading M101, Supplementary Fig. 47 source data): 2.818
Th-T fluorescence, mean of three wells (time-course reading M102, Supplementary Fig. 47 source data): 2.832
Th-T fluorescence, mean of three wells (time-course reading M103, Supplementary Fig. 47 source data): 2.816
Th-T fluorescence, mean of three wells (time-course reading M104, Supplementary Fig. 47 source data): 2.8075
Th-T fluorescence, mean of three wells (time-course reading M105, Supplementary Fig. 47 source data): 2.8016
Th-T fluorescence, mean of three wells (time-course reading M106, Supplementary Fig. 47 source data): 2.808
Th-T fluorescence, mean of three wells (time-course reading M107, Supplementary Fig. 47 source data): 2.794
Th-T fluorescence, mean of three wells (time-course reading M108, Supplementary Fig. 47 source data): 2.811
Th-T fluorescence, mean of three wells (time-course reading M109, Supplementary Fig. 47 source data): 2.783
Th-T fluorescence, mean of three wells (time-course reading M110, Supplementary Fig. 47 source data): 2.799
Th-T fluorescence, mean of three wells (time-course reading M111, Supplementary Fig. 47 source data): 2.807
Th-T fluorescence, mean of three wells (time-course reading M112, Supplementary Fig. 47 source data): 2.812
Th-T fluorescence, mean of three wells (time-course reading M113, Supplementary Fig. 47 source data): 2.81
Th-T fluorescence, mean of three wells (time-course reading M114, Supplementary Fig. 47 source data): 2.8
Th-T fluorescence, mean of three wells (time-course reading M115, Supplementary Fig. 47 source data): 2.812
Th-T fluorescence, mean of three wells (time-course reading M116, Supplementary Fig. 47 source data): 2.796
SMILES: C=C1CCC2C(C)(CCC=C(C)C)C(O)CCC2(C)C1Cc1c(O)c(C)c(C)oc1=O (stereo not drawn) [Compound 9, higginsianin B]

From article PMC7156458, “Synthetic biology based construction of biological activity-related library of fungal decalin-containing diterpenoid pyrones” (Nature Communications, 2020)
